Test [1] addresses T1, RNA-binding protein pos-1 (Caenorhabditis elegans, UniProt G5EF15).
T1 sequence (G5EF15 whole entry): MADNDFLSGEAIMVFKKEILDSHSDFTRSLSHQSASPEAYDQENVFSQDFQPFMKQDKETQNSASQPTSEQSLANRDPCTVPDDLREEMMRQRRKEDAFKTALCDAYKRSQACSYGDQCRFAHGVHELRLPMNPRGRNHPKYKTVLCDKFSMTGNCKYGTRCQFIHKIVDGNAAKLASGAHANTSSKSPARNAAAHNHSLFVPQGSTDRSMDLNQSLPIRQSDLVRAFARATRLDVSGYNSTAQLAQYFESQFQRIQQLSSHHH
The test can be described thus: inhibitors of POS-1/mex-3 RNA binding, dose response, biochemical, fluorescence polarization (AID 1964).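 Also: purified POS-1 fused to maltose binding protein made in E. coli; potency of compounds blocking POS-1 binding to fluorescent RNA.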 Background: Polarisation of emitted light reports the rotation of a fluorescent probe.

The target of test [2] is T2, Zinc finger protein mex-5 (Caenorhabditis elegans, UniProt Q9XUB2).
T2 sequence (Q9XUB2 whole entry): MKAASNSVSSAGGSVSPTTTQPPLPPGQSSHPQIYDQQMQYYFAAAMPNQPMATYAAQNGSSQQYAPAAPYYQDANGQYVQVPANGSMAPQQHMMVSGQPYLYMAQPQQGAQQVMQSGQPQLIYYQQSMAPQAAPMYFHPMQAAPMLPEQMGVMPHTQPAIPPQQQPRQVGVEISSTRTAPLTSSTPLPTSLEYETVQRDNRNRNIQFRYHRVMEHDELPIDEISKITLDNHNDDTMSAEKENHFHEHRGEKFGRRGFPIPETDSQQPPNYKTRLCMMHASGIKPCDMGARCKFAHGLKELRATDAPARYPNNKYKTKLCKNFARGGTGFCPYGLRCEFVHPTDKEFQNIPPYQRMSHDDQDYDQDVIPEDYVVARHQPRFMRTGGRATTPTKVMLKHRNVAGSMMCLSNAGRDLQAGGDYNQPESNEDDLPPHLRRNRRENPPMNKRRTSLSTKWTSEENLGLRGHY
Briefly: MEX-5/TCR-2 RNA interaction inhibitors, dose response, biochemical, C. elegans, fluorescence polarization (AID 1960).

Test [3] in a line: NIH-3T3 fibroblast cytotoxicity, dose response, cytotoxicity control, cell-based, fluorescence, Alamar Blue, secondary assay (AID 2327).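 Also: NIH-3T3 mouse fibroblasts cultured with fluconazole at 8 µg/mL.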 Format: functional. On the technique in general: Resazurin is reduced to fluorescent resorufin, in cell work by metabolically active cells.
Test [4] in a line: C. albicans growth with fluconazole, confirmation, fluorescence, retest (AID 2467). Format: functional, cell-based.
The nature of test [5]: inhibitors of intracellular T. cruzi replication, confirmation, NIH3T3 host cells, beta-gal luminescence (AID 2044).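 Also: intracellular parasites grown in NIH/3T3 mouse fibroblasts as host cells; luminescent beta-galactosidase reporter signal from transgenic T. cruzi replicating inside host cells; inhibitors lower the luminescence signal.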 It counts as functional, cell-based.
Test [6] is described as follows: cytotoxicity toward NIH3T3 fibroblasts, dose response, counter-screen, cell-based, ATP luminescence, mouse fibroblasts (AID 2010).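 Also: cells exposed to compound for about 90 hours before reading.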 It counts as functional. Background: The purpose of a counterscreen is to sort out artefacts and off-target activity.
In test [7] the target is T3, Heat shock factor protein 1 (Mus musculus, UniProt P38532).
T3 sequence (P38532 whole entry): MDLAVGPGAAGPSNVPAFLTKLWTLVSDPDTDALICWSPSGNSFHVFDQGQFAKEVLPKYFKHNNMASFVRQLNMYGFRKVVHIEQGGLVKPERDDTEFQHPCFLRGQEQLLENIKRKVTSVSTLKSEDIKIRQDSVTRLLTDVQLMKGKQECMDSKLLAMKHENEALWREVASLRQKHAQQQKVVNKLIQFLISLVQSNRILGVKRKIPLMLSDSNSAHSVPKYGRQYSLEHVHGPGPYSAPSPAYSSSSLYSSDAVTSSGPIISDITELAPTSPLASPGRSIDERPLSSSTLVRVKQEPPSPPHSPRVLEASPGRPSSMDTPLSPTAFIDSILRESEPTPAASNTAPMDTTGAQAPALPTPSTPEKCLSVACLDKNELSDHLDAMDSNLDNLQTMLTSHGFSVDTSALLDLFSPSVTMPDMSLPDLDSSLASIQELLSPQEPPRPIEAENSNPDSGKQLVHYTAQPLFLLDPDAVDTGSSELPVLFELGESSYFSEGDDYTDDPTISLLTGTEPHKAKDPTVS
The test can be described thus: HSF1 potentiators in luciferase reporter cells, confirmation, cell-based, NIH3T3, luminescence, dose retest (AID 435004).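 Also: stress induced by proteasome inhibitor MG132 added 30 min after compound; luciferase reporter driven by HSF1 response element in NIH3T3 cells; actives raise luminescence as potentiators of the MG132 stress response.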 Format: functional.

Another test can be described thus: cells. It counts as functional.
Test [8] can be described thus: inhibitors of clade B AD8 Env fusion, dose response, cell-based, cherry-pick (AID 652062).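 Also: luciferase signal from cell-cell fusion driven by HIV-1 clade B AD8 Env; potency is for inhibitors of fusion seen as a drop in luminescence.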 Format: functional.
A further test has as its target Cytochrome P450 2D6 (Homo sapiens, UniProt P10635).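 Also: CYP2D6 member of a cytochrome P450 panel assay.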
Test [9] deals with T4, Corticotropin-releasing factor receptor 2/Corticotropin-releasing factor-binding protein (Homo sapiens, UniProt P24387+Q13324).
T4 sequence (Q13324 whole entry): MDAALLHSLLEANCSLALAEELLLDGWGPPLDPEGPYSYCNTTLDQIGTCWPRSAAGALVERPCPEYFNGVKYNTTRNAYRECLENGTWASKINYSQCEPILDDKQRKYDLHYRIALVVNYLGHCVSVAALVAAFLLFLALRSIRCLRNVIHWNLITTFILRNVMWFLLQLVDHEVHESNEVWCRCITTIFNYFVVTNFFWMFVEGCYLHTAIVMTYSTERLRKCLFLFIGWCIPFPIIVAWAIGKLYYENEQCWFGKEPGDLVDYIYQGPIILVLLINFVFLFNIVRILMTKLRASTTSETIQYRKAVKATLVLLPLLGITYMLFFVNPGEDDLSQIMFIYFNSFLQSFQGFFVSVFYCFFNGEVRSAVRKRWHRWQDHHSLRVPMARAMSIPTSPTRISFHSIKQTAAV
T4 sequence (P24387 whole entry): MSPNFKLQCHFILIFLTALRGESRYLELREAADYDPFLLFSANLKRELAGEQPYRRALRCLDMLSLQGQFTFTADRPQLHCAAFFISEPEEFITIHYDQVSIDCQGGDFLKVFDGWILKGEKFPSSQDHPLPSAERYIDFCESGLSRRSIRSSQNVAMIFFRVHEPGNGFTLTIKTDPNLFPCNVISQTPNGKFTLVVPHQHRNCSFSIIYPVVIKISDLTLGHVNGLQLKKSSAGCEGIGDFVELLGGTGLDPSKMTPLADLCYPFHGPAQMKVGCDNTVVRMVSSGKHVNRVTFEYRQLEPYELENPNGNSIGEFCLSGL
The test can be described thus: activators of CRF receptor 2 with binding protein – uHTS hits, confirmation (AID 602473). It counts as functional. As to conditions: read-out: EC50_Mean.

The target of test [10] is T5, Microphthalmia-associated transcription factor (Homo sapiens, UniProt O75030).
T5 sequence (O75030 whole entry): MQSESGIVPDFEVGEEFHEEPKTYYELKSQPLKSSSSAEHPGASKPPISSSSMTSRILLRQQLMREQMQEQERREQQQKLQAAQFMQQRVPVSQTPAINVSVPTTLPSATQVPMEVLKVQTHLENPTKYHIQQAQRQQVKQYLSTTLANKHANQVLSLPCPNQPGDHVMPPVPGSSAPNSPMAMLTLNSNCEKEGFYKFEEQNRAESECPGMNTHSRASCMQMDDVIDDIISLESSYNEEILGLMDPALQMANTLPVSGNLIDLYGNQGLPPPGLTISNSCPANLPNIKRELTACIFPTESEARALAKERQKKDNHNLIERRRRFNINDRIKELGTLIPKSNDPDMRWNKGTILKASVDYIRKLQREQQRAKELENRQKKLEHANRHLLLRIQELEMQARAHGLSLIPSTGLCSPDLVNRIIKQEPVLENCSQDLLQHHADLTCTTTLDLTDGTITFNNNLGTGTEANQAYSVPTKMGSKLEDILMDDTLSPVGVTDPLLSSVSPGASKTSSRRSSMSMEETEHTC
The test can be described thus: TRPM1 promoter luciferase signal decrease, dose response, MITF inhibitor project, cell-based, SK-MEL-5, cherry-picked, set 3 (AID 493073).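 Also: SK-MEL-5 melanoma cells with luciferase driven by the MITF target TRPM1 promoter.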 It counts as functional.

Test [11] in a line: HEp-2 cell cytotoxicity, dose response, cytotoxicity control for RSV inhibitor project, HTS (AID 2410). The conditions noted are these: human respiratory syncytial virus. It counts as functional.

Activity calls are given as the source filed them. Rule as the data show it, for most assays here: actives have a measured EC50 and inactives only a lower limit.

25 molecules from ChEMBL document CHEMBL1201862, “PubChem BioAssay data set” (2004) can be followed below.

Chain of Cytochrome P450 2D6 (P10635 whole entry): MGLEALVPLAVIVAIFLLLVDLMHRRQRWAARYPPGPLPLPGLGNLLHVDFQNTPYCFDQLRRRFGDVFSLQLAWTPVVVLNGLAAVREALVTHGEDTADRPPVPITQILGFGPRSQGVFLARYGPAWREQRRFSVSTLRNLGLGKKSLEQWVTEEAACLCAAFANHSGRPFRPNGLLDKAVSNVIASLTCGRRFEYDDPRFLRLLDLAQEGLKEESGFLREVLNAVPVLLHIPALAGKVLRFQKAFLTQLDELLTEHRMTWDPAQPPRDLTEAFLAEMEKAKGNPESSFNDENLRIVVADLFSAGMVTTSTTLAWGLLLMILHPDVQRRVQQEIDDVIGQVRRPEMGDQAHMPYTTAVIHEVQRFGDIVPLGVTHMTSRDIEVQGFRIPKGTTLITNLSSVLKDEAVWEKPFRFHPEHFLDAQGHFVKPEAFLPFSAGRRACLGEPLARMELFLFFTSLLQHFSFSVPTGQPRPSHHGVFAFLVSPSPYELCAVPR

As for `CCCCOC(=O)CSC1=C(C#N)C(c2ccccc2OCC)C(C#N)C(=O)N1` (configuration not stated), the EC50 in [1] was > 300 µM (not active); in [2] it was > 300 µM (inconclusive). In the case of `COc1cccc2s/c(=N/C(=O)CS(=O)(=O)c3ccc(Cl)cc3)n(C)c12`, the EC50 was > 160 µM (inactive) in test [3], 2.16 µM (active) in test [4], 0.34 µM (active) in test [5] and > 60 µM (not active) in test [6]. Take `O=C(CCCSc1nc2ccccc2[nH]1)N1CCN(c2ccc([N+](=O)[O-])cc2)CC1`: the EC50 in test [7] was > 260 µM (inactive). A word on the IC50: it is the concentration at which inhibition is half-maximal. As to `O=C(OCc1nc2ccccc2s1)c1ccc(Br)o1`, the IC50 in “cells” is 11.9 µM (active). Take `CC1(C)CC(=O)C2=C(C1)OC(N)=C(C#N)C2c1ccccc1OC(=O)N1CCOCC1` (configuration not stated): the EC50 in test [1] and in [2] was > 300 µM (not active) in each case.

Turning to `Cc1cccc(N2C(=O)NC(=O)/C(=C/Nc3ccccc3N)C2=O)c1`, the EC50 in [3] is > 160 µM (inactive); in test [4], > 38 µM (not active). On to `Cc1ccccc1NC(=O)CSc1nc(Nc2ccccc2)nc(N2CCOCC2)n1`, for which the EC50 in test [7] is > 260 µM (inactive). Regarding `Clc1ccccc1-c1nc2ccccc2c2nc3ccccc3n12`, the EC50 was > 150 µM (inactive) in test [3] and 12.2 µM (active) in test [4]. In the case of `Cc1ccsc1/C=N/NC(=O)c1ccncc1`, the IC50 in “cells” is 3.02 µM (active).

Consider `Cc1nc2ccc(N3CCN(C)CC3)cc2nc1C`, for which the EC50 in test [1] and in test [2] was > 300 µM (not active) each time. For the molecule `COC(=O)c1c(C(=O)OC)c2n(c1C)Cc1ccccc1C2`, the EC50 in test [1] is > 300 µM (not active); in test [2], 43.7 µM (active). As for `Cc1cccn2c(=O)c3cc(C(=O)NCC4CCCO4)c(=N)n(CCc4ccccc4)c3nc12` (configuration not stated), the EC50 in test [1] was 102 µM (active); in test [2], 7.9 µM (inconclusive). With `O=C(N/N=C\C=C\c1ccco1)c1cncc(Br)c1`, in “cells”, the IC50 is > 50 µM (active).

Usually AC50 stands for the concentration at which the activity in the assay is half-maximal. `Cn1c(CN2CCCCC2)nc2cc(NC(=O)c3ccc(Cl)cc3)ccc21`: the AC50 in test [8] is 28.7 µM (active); on Cytochrome P450 2D6, 0.0316 µM (inconclusive).

Turning to `CC(=O)c1cc(NC(=O)c2ccc(Cl)cc2)c(=O)oc1/C=C/N(C)C`, the EC50 in test [1] is 57.3 µM (active); in test [2], 4.07 µM (active); in [9], 5 µM (active). Turning to `CC(c1ccc(Cl)cc1)n1c(S)nnc1-c1ccc2ccccc2n1` (configuration not stated), the EC50 in [3] was > 160 µM (inactive); in test [4], 4.24 µM (active). The AC50 at Cytochrome P450 2D6 was 39.8 µM (inconclusive). On to `Cc1ccc(C)c(S(=O)(=O)Nc2ccccc2C(=O)Nc2cc(C)on2)c1`, for which the EC50 in test [3] is > 160 µM (inactive); in test [4] it was 1.28 µM (active). As for `O=C(/C=C/c1ccc([N+](=O)[O-])s1)N1CCCCC1`, the half-maximal activity concentration (AC50) in [10] is 4.16 µM (active).

The term CC50 denotes the concentration at which the toxic effect on the cells reaches its halfway point. For `CCCCN1CCc2c1nc1ccc(Br)cc1c2N`, in test [11], the CC50 is 14.1 µM (active). Further, the AC50 in test [10] was 12.2 µM (active). With `Cc1cccc(NC(=O)CCSc2nnc(Cc3ccccc3)o2)c1`, in the test “cells”, the 50% inhibitory concentration (IC50) is 39.8 µM (active).

As to `Cn1c(=O)oc2cc(S(=O)(=O)N3CCCCC3)ccc21`, in [7], the EC50 is > 260 µM (inactive).

As for `O=C(Nc1nc2ccccc2[nH]1)c1ccc(OC(F)F)cc1`, the EC50 in [7] is > 260 µM (inconclusive).

For the molecule `CSc1nn(-c2ccc(C(=O)OCC(=O)NC(=O)NC(C)C)cc2)c(=S)s1`, in “cells”, the half-inhibitory concentration (IC50) is 13.2 µM (active). For the molecule `CC(=O)NC(=O)NC1OC(=O)C(Cl)=C1Cl` (configuration not stated), the EC50 in [7] is > 260 µM (inconclusive). Turning to `CCOC(=O)c1sc(C)c2c1NC(C)(c1cccc3ccccc13)NC2=O` (configuration not stated), the EC50 in [7] is > 260 µM (inactive).
